Reference: patent publication US6890940B2, “Bis(2-aryl-5-pyridyl) derivatives” (Kowa Co., Ltd., priority 2001, dated 2005)
Counter-ions that a name gives are not always drawn. Like-named read-outs stand apart in the source and are kept apart here. Marks after values point to notes of the source that are not given here.

Legend:
IgE antibody production = test: Evaluation of IgE antibody production inhibiting activity (mouse spleen B cells stimulated with LPS and IL-4, IgE in supernatant by ELISA); format: cell-based; details: B-cell; mouse (Balb/C) spleen B cells, LPS + mouse IL-4, drug added Day 1, IgE in culture supernatant by ELISA
Description: Test 1 (Evaluation of IgE Antibody Production Inhibiting Activity)
From a mouse (Balb/C, male, 8 weeks old), the spleen was enucleated. The spleen was shredded in 10% FBS/RPMI 1640, and was then disintegrated into single cells through a 70-mesh screen. Those single cells were hemolyzed with Gey's solution, and using RPMI 1640 medium/25 mM HEPES/0.3% BSA, a spleen cell suspension (1×10^7 cells/mL) was prepared. After an aliquot of the suspension was reacted with a rat anti-mouse Thy-1.2 monoclonal antibody (product of Cedarlane Laboratories Limited) at 4° C. for 1 hour, centrifugation was conducted. Precipitated cells were suspended again (1×10^7 cells/mL, RPMI/HEPES/BSA). After the suspension was next reacted with a low-cytotoxic rabbit complement (product of Cedarlane Laboratories Limited) at 37° C. for 1 hour, dead cells were removed by specific gravity centrifugation using Lympholyte M (product of Cedarlane Laboratories Limited) so that a B cell fraction was obtained as viable cells. […]
The IgE antibody production inhibiting activity of each drug was calculated by adding the drug Day 1 of the incubation and assaying the quantity of IgE in the culture supernatant by ELISA after the incubation.

[1] = Solubility of each compound in water; format: physicochemical
Description: Further, the solubility (%) of each compound in water was also estimated.

[2] = Solubility of each compound in water; format: physicochemical; details: in 1M hydrochloric acid (footnote *)

| Structure (SMILES) | IC50 (IgE antibody production) [nM] | Solubility [1] [%] | Solubility [2] |
| --- | --- | --- | --- |
| COc1cc(-c2ccc(N3CCCN(c4ccc(-c5cc(OC)c(OC)c(OC)c5)nc4)CC3)cn2)cc(OC)c1OC [Example 30, 1,4-Bis[2-(3,4,5-trimethoxyphenyl)-5-pyridyl]hexahydro-1,4-diazepine dimethanesulfonate] | 100 | 0.1 | – |
| COc1cc(-c2ccc(N(C)CCCN(C)c3ccc(-c4cc(OC)c(OC)c(OC)c4)nc3)cn2)cc(OC)c1OC [Example 37, N,N′-Bis[2-(3,4,5-trimethoxyphenyl)-5-pyridyl]-N,N′-dimethyl-1,3-propanediamine dimethanesulfonate] | 100 | 10 | – |
| COc1cc(-c2ccc(N(C)CCN(C)CCN(C)c3ccc(-c4cc(OC)c(OC)c(OC)c4)nc3)cn2)cc(OC)c1OC [Example 42, N,N-Bis[N-[2-(3,4,5-trimethoxyphenyl)-5-pyridyl]-N-methyl-2-aminoethyl]methylamine trihydrochloride.] | 100 | 10 | – |
| COc1cc(-c2ccc(N(C)CCCN(C)CCCN(C)c3ccc(-c4cc(OC)c(OC)c(OC)c4)nc3)cn2)cc(OC)c1OC [Example 43, N,N-Bis[N-[2-(3,4,5-trimethoxyphenyl)-5-pyridyl]-N-methyl-3-aminopropyl]methylamine] | 100 | – | 10* % |
| COc1cc(-c2ccc(NCCOCCNc3ccc(-c4cc(OC)c(OC)c(OC)c4)nc3)cn2)cc(OC)c1OC [Example 44, Bis[N-[2-(3,4,5-trimethoxyphenyl)-5-pyridyl]-2-aminoethyl]ether dimethanesulfonate] | 100 | 10 | – |
| COc1cc(-c2ccc(N(C)CCCN(C)CCCN(C)c3ccc(-c4cc(OC)c(OCC(F)(F)F)c(OC)c4)nc3)cn2)cc(OC)c1OCC(F)(F)F [Example 57, N,N-Bis[N-[2-(3,5-dimethoxy-4-(2,2,2-trifluoroethoxy)phenyl]-5-pyridyl]-N-methyl-3-aminopropyl]methylamine trihydrochloride] | 100 | 1 | – |

Compounds with a lower IC50 (IgE antibody production), results first:

| IC50 (IgE antibody production) [nM] | Solubility [1] [%] | Solubility [2] | Structure (SMILES) |
| --- | --- | --- | --- |
| 40 | 5 | – | COc1cc(-c2ccc(N(C)CCN(C)c3ccc(-c4cc(OC)c(OC)c(OC)c4)nc3)cn2)cc(OC)c1OC [Example 7, N,N′-Bis[2-(3,4,5-trimethoxyphenyl)-5-pyridyl]-N,N′-dimethylethylenediamine dimethanesulfonate] |
| 40 | 0.1 | – | COc1cc(-c2ccc(N(C)CCN(C)c3ccc(-c4cc(OC)c(O)c(OC)c4)nc3)cn2)cc(OC)c1O [Example 14, N,N′-Bis[2-(4-hydroxy-3,5-dimethoxyphenyl)-5-pyridyl]-N,N′-dimethylethylenediamine dimethanesulfonate] |
| 30 | 10 | – | CCN(CCN(CC)c1ccc(-c2cc(OC)c(OC)c(OC)c2)nc1)c1ccc(-c2cc(OC)c(OC)c(OC)c2)nc1 [Example 36, N,N′-Bis[2-(3,4,5-trimethoxyphenyl)-5-pyridyl]-N,N′-diethylethylenediamine dimethanesulfonate] |
| 80 | 10 | – | COc1cc(-c2ccc(N(C)CC(C)(C)CN(C)c3ccc(-c4cc(OC)c(OC)c(OC)c4)nc3)cn2)cc(OC)c1OC [Example 39, N,N′-Bis[2-(3,4,5-trimethoxyphenyl)-5-pyridyl]-N,N′,2,2-tetramethyl-1,3-propanediamine dimethanesulfonate] |
| 50 | – | 0.1* % | COc1cc(-c2ccc(N(C)CC(O)CN(C)c3ccc(-c4cc(OC)c(OC)c(OC)c4)nc3)cn2)cc(OC)c1OC [Example 41, 2-hydroxy-N,N′-bis[2-(3,4,5-trimethoxyphenyl)-5-pyridyl]-N,N′-dimethyl-1,3-propanediamine] |
| 50 | 0.1 | – | COc1cc(-c2ccc(N3CCN(c4ccc(-c5cc(OC)c(OC)c(OC)c5)nc4)C(CN(C)C)C3)cn2)cc(OC)c1OC (stereo not drawn) [Example 47, 2-(Dimethylamino)methyl-1,4-bis[2-(,3,4,5-trimethoxyphenyl)-5-pyridyl]piperazine trihydrochloride] |
